SMILES strings stand for the structures.

The first series can be described thus: Average particle diameter of preparation (Zetasizer Nano ZS). In kind it is physicochemical. The conditions noted are these: Comparative Examples 1 to 8, prepared as Example 118 with apo-b siRNA. The source says:
Preparations were produced using the compounds obtained in Examples 1 to 117, as follows.
APO-B siRNA was used as the nucleic acid. APO-B siRNA suppresses expression of an apolipoprotein-B (hereinafter, “apo-b”) gene and has a sense strand with the base sequence 5′-GmUCAmUCACACmUGAAmUACCAAmU-3′ (the sugars attached to the bases appended with m are 2′-O-methyl-substituted riboses), and an antisense strand with the base sequence 5′-[…]-3′ (the 5′-end is phosphorylated). The sense strand and the antisense strand were obtained from Nippon EGT, GeneDesign, Inc., Invitrogen or Hokkaido System Science Co., Ltd., and annealed to prepare the nucleic acid (hereinafter, “apo-b siRNA”).
A solution comprising the constituent components was prepared by dissolving each of the weighed samples in 90 vol % ethanol in 8.947/1.059/5.708/13.697 mmol/L [compounds 1 to 117 obtained in Examples 1 to 117/sodium 1,2-dimyristoyl-sn-glycero-3-phosphoethanolamine-N-(methoxy(polyethylene glycol)-2000) (PEG-DMPE Na,N-(carbonylmethoxypolyethylene glycol 2000)-1,2-dimyristoyl-sn-glycero-3-phosphoethanolamine sodium salt, NOF Corporation)/distearoylphosphatidyl choline (DSPC, 1,2-distearoyl-sn-glycero-3-phosphocholine, NOF Corporation)/cholesterol (Avanti Polar Lipids)]. Separately, apo-b siRNA/distilled water (24 mg/mL) was diluted with a Tris-EDTA buffer (200 mM Tris-HCl, 20 mM EDTA, Invitrogen) and a 20 mM citric acid buffer (pH 5.0) to prepare a 1.5 mg/mL apo-b siRNA aqueous solution (2 mM Tris-EDTA/20 mM citric acid buffer, pH 5.0).
The resulting lipid solution was heated to 37° C., and a 100-μL portion was transferred to a preparation container. The apo-b siRNA aqueous solution (100 μL) was then added thereto while being stirred. Then, a 20 mM citric acid buffer (containing 300 mM NaCl, pH 6.0; 200 μL) was added to the lipid nucleic acid mixed suspension (200 μL) while being stirred. The siRNA concentration was brought to 10 μM by dropping a Dulbecco phosphate buffer (DPBS, Invitrogen; 662 μL), and preparations (compositions comprising compounds 1 to 117 and the nucleic acid) were obtained.
The average particle diameter of the complex between the cationic lipis and the nucleic acid in each preparation was measured with a particle diameter measurement device (Malvern; Zetasizer Nano ZS).
Take `CCCCCCCC/C=C\CCCCCCCCO[C@@H]1CN(Cc2ccccc2)C[C@H]1OCCCCCCCC/C=C\CCCCCCCC` [Compound VI-4, (3R,4R)-1-Benzyl-3,4-bis((Z)-octadec-9-enyloxy)pyrrolidine, reference compound]: the “average particle diameter of the complex between the cationic lipis and the nucleic acid in the preparation” value came out at 157.8 nm.

The same series, now with this note: average particle diameter of cationic lipid/nucleic acid complex; Example 118 preparation: compound/PEG-DMPE Na/DSPC/cholesterol with apo-b siRNA.
`CCCCCCCCCCCCCCOCCN(C)CCOCCCCCCCCCCCCCC` [Compound 34, N-Methyl-N,N-bis(2-(tetradecyloxy)ethyl)amine]: the “Particle diameter of Preparetion” value is listed as 165.7 nm.
Still for that read-out and setting: in the case of `CCCCCCCCCCCCCCCCO[C@@H]1CN(C)C[C@H]1OCCCCCCCCCCCCCCCC` [Compound 45, (3R,4R)-3,4-bis(Hexadecyloxy)-1-methylpyrrolidine] it was 136.3 nm.
With `CCCCCCCCCCCCCCCCO[C@@H]1CNC[C@H]1OCCCCCCCCCCCCCCCC` [Compound 38, (3R,4R)-3,4-bis(Hexadecyloxy)pyrrolidine], the “Particle diameter of Preparetion” value was 157.2 nm.
On to `CCCCC/C=C\C/C=C\CCCCCCCCO[C@@H]1CN(C(=O)[C@@H](N)CCCCN)C[C@H]1OCCCCCCCC/C=C\C/C=C\CCCCC` [Compound 31, (3R,4R)-1-((5)-2,6-Diaminohexanoyl)-3,4-bis((9Z,12Z)-octadec-9,12-dienyloxy)pyrrolidine], for which the “Particle diameter of Preparetion” value is recorded as 100.7 nm.
For `CCCCCCCC/C=C\CCCCCCCCOCCN(CCOCCCCCCCC/C=C\CCCCCCCC)C(=O)CCN(C)C` [Compound 90, 3-(Dimethylamino)-N,N-bis(2-((Z)-octadec-9-enyloxy)ethyl)propanamido], the “Particle diameter of Preparetion” value is 120.8 nm.
For the molecule `CCCCCCCC/C=C\CCCCCCCC(=O)O[C@@H]1CNC[C@H]1OC(=O)CCCCCCC/C=C\CCCCCCCC` [Compound 9, (3R,4R)-Pyrrolidine-3,4-diyl di((Z)-octadec-9-enoate)], the “Particle diameter of Preparetion” value is 141.9 nm.
`CCCCCCCC/C=C\CCCCCCCC(=O)OCCN(CCOC(=O)CCCCCCC/C=C\CCCCCCCC)C(=O)CN` [Compound 95, 2-Amino-N,N-bis(2-((Z)-octadec-9-enoyloxy)ethyl)acetamide]: the “Particle diameter of Preparetion” value worked out at 128.3 nm.
Consider `CCCCC/C=C\C/C=C\CCCCCCCC(=O)O[C@@H]1CN(C(=O)CCN(C)C)C[C@H]1OC(=O)CCCCCCC/C=C\C/C=C\CCCCC` [Compound 29, (3R,4R)-1-(3-(dimethylamino)propanoyl)pyrrolidine-3,4-diyl di((9Z,12Z)-octadec-9,12-dienoate)], for which the “Particle diameter of Preparetion” value is recorded as 122.5 nm.
For `CCCCCC/C=C\CCCCCCCCOC[C@@H]1CNC[C@H]1COCCCCCCCC/C=C\CCCCCC` (relative stereo) [Compound 44, trans-3,4-bis(((Z)-Hexadec-9-enyloxy)methyl)pyrrolidine], the “Particle diameter of Preparetion” value was found to be 143.5 nm.
On the same count and under the same terms, with `CCCCCCCCCCCCCCCCCCO[C@@H]1CN(C)C[C@H]1OCCCCCCCCCCCCCCCCCC` [Compound 46, (3R,4R)-1-Methyl-3,4-bis(octadecyloxy)pyrrolidine] the figure was 192.0 nm; with `CCCCC/C=C\C/C=C\CCCCCCCCCCOC[C@@H]1CNC[C@H]1COCCCCCCCCCC/C=C\C/C=C\CCCCC` (relative stereo) [Compound 103, trans-3,4-bis(((11Z,14Z)-Icos-11,14-dienyloxy)methyl)pyrrolidine], 141.8 nm.
`CCCCC/C=C\C/C=C\CCCCCCCCO[C@@H]1CN(CC)C[C@H]1OCCCCCCCC/C=C\C/C=C\CCCCC` [Compound 17, (3R,4R)-1-Ethyl-3,4-bis((9Z,12Z)-octadec-9,12-dienyloxy)pyrrolidine]: the “Particle diameter of Preparetion” value is 142.6 nm.
Same read-out and setting: with `CCCCCCCCCCC/C=C\CCCCCO[C@@H]1CNC[C@H]1OCCCCC/C=C\CCCCCCCCCCC` [Compound 7, (3R,4R)-3,4-bis((Z)-Octadec-6-enyloxy)pyrrolidine] the figure was 148.7 nm; with `CCCCC/C=C\C/C=C\CCCCCCCCO[C@H]1CNC[C@H]1OCCCCCCCC/C=C\C/C=C\CCCCC` [Compound 3, (3R,4S)-3,4-bis((9Z,12Z)-Octadec-9,12-dienyloxy)pyrrolidine], 152.8 nm; with `CCCCCCCC/C=C\CCCCCCCCO[C@@H]1CNC[C@H]1OCCCCCCCC/C=C\CCCCCCCC` [Compound 4, (3R,4R)-3,4-bis((Z)-Octadec-9-enyloxy)pyrrolidine], 160.6 nm.
The same measure, in the same setting: with `CCCCCCCC/C=C\CCCCCCCCOCCN(CCOCCCCCCCC/C=C\CCCCCCCC)C(=O)[C@@H](N)CCCN` [Compound 93, (S)-2,5-Diamino-N,N-bis(2-((Z)-octadec-9-enyloxy)ethyl)pentanamido] the figure was 135.1 nm; with `CCCCCCCC/C=C\CCCCCCCCCCO[C@@H]1CNC[C@H]1OCCCCCCCCCC/C=C\CCCCCCCC` [Compound 42, (3R,4R)-3,4-bis((Z)-Icos-11-enyloxy)pyrrolidine], 131.3 nm; with `CCCCCC/C=C\CCCCCCCCOCCNCCOCCCCCCCC/C=C\CCCCCC` [Compound 72, bis(2-((Z)-Hexadec-9-enyloxy)ethyl)amine], 130.6 nm.
On the same count and under the same terms, with `CCCCC/C=C\C/C=C\CCCCCCCC(=O)OC[C@@H]1CNC[C@H]1COC(=O)CCCCCCC/C=C\C/C=C\CCCCC` (relative stereo) [Compound 105, trans-3,4-bis(((9Z,12Z)-Octadec-9,12-dienoyloxy)methyl)pyrrolidine] the figure was 125.6 nm; with `CCCCC/C=C\C/C=C\CCCCCCCCO[C@@H]1CN(C(=O)CCCCCN)C[C@H]1OCCCCCCCC/C=C\C/C=C\CCCCC` [Compound 64, (3R,4R)-1-(6-Aminohexanoyl)-3,4-bis((9Z,12Z)-octadec-9,12-dienyloxy)pyrrolidine], 146.0 nm.
Consider `CCCCC/C=C\C/C=C\CCCCCCCCO[C@@H]1CN(C)C[C@H]1OCCCCCCCC/C=C\C/C=C\CCCCC` [Compound 10, (3R,4R)-1-Methyl-3,4-bis((9Z,12Z)-octadec-9,12-dienyloxy)pyrrolidine], for which the “Particle diameter of Preparetion” value is given as 153.9 nm.
As to `CCCCCCCC/C=C\CCCCCCCCOC[C@@H]1CNC[C@H]1COCCCCCCCC/C=C\CCCCCCCC` (relative stereo) [Compound 101, trans-3,4-bis(((Z)-Octadec-9-enyloxy)methyl)pyrrolidine], the “Particle diameter of Preparetion” value is 148.7 nm.
As to `CCCCCC/C=C\CCCCCCCCO[C@@H]1CNC[C@H]1OCCCCCCCC/C=C\CCCCCC` [Compound 6, (3R,4R)-3,4-bis((Z)-Hexadec-9-enyloxy)pyrrolidine], the “Particle diameter of Preparetion” value is 140.3 nm.
On the same count and under the same terms, with `CCCCC/C=C\C/C=C\CCCCCCCC(=O)O[C@@H]1CN(C(=O)[C@@H](N)CCCCN)C[C@H]1OC(=O)CCCCCCC/C=C\C/C=C\CCCCC` [Compound 66, (3R,4R)-1-((S)-2,6-Diaminohexanoyl)pyrrolidine-3,4-diyl di((9Z,12Z)-octadec-9,12-enoate)] the figure was 137.4 nm; with `CCCCCCCC/C=C\CCCCCCCCOCC[N+](C)(C)CCOCCCCCCCC/C=C\CCCCCCCC.[Cl-]` [Compound 80, N,N-diMethyl-N,N-bis(2-((Z)-octadec-9-enyloxy)ethyl)aminium chloride], 110.3 nm.

These data come from patent US20170349532A1, “CATIONIC LIPID” (Kyowa Hakko Kirin Co., Ltd., priority 2011, published 2017).
